Experiments:
Experiment in all cases: relative viability (nuclei count vs DMSO), 5 days (fraction); higher = more cells survive
Tivantinib + Tozasertib = compound: O=C1NC(=O)[C@@H](c2cn3c4c(cccc24)CCC3)[C@@H]1c1c[nH]c2ccccc12 [Tivantinib] + Cc1cc(Nc2cc(N3CCN(C)CC3)nc(Sc3ccc(NC(=O)C4CC4)cc3)n2)n[nH]1 [Tozasertib] (partner 0.1 µM)
Outline: (§1)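 The day after seeding in 1536-well plates, lung cancer cell lines were treated by pin tool with a single drug, or with a fixed anchor-drug dose together with five library-drug doses (not always all listed) in √10 steps. After 5 days, a combined fix-and-stain solution (final 0.05% Triton X-100, 1% formaldehyde, 1 ug/ml Hoechst) was added. Nuclei counted on 4× images gave relative viability as treated counts over vehicle counts, reported as the median of duplicate plates.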

Tivantinib + Alpelisib = compound: O=C1NC(=O)[C@@H](c2cn3c4c(cccc24)CCC3)[C@@H]1c1c[nH]c2ccccc12 [Tivantinib] + Cc1nc(NC(=O)N2CCC[C@H]2C(N)=O)sc1-c1ccnc(C(C)(C)C(F)(F)F)c1 [Alpelisib] (partner 2 µM)
Outline: as §1

Tivantinib + Olaparib = compound: O=C1NC(=O)[C@@H](c2cn3c4c(cccc24)CCC3)[C@@H]1c1c[nH]c2ccccc12 [Tivantinib] + O=C(c1cc(Cc2n[nH]c(=O)c3ccccc23)ccc1F)N1CCN(C(=O)C2CC2)CC1 [Olaparib] (partner 8 µM)
Outline: as §1

Crenolanib + Lapatinib = compound: CC1(COc2ccc3c(c2)ncn3-c2ccc3cccc(N4CCC(N)CC4)c3n2)COC1 [Crenolanib] + CS(=O)(=O)CCNCc1ccc(-c2ccc3ncnc(Nc4ccc(OCc5cccc(F)c5)c(Cl)c4)c3c2)o1 [Lapatinib] (partner 2 µM)
Outline: as §1

Cell Line	relative viability (Tivantinib + Tozasertib; first compound 0.01 µM)	relative viability (Tivantinib + Tozasertib; first compound 0.03162 µM)	relative viability (Tivantinib + Tozasertib; first compound 0.1 µM)	relative viability (Tivantinib + Tozasertib; first compound 0.3162 µM)	relative viability (Tivantinib + Alpelisib; first compound 0.01 µM)	relative viability (Tivantinib + Alpelisib; first compound 0.03162 µM)	relative viability (Tivantinib + Alpelisib; first compound 0.1 µM)	relative viability (Tivantinib + Alpelisib; first compound 0.3162 µM)	relative viability (Tivantinib + Olaparib; first compound 0.01 µM)	relative viability (Tivantinib + Olaparib; first compound 0.03162 µM)	relative viability (Tivantinib + Olaparib; first compound 0.1 µM)	relative viability (Tivantinib + Olaparib; first compound 0.3162 µM)	relative viability (Crenolanib + Lapatinib; first compound 0.01 µM)	relative viability (Crenolanib + Lapatinib; first compound 0.03162 µM)	relative viability (Crenolanib + Lapatinib; first compound 0.1 µM)	relative viability (Crenolanib + Lapatinib; first compound 0.3162 µM)	relative viability (Crenolanib + Lapatinib; first compound 1 µM)
NCI-H520	0.471	0.494	0.395	0.434	0.921	0.991	0.815	0.925	0.347	0.339	0.291	0.37	0.664	0.848	0.88	0.85	0.778
NCI-H596	1.05	0.819	0.929	0.799	0.623	0.397	0.358	0.433	0.734	0.661	0.655	0.6	0.947	1.09	0.89	1.14	1.18
NCI-H647	0.38	0.265	0.306	0.137	1.15	1.16	1.09	1.14	0.425	0.638	0.401	0.638	1.04	0.996	1.05	1.16	1.08
NCI-H650	0.857	0.61	0.802	0.585	1.24	–	0.956	1.02	0.41	0.432	0.356	0.34	0.83	1.15	0.884	0.841	0.655
NCI-H661	0.365	0.363	0.354	0.356	0.404	0.86	0.72	–	0.742	0.744	0.706	0.699	0.493	0.547	0.47	0.451	0.468
NCI-H727	0.641	0.558	0.463	0.515	0.537	0.526	0.505	–	0.746	0.785	0.593	–	0.936	0.662	0.752	0.856	0.686
NCI-H838	0.26	0.273	0.262	0.322	0.915	1.06	0.973	0.953	0.775	0.77	0.71	0.816	1.07	0.966	0.993	1.02	0.805
NCI-H1355	0.561	0.488	0.541	0.489	0.852	0.839	0.877	0.751	0.807	0.742	0.726	0.64	1.02	1.04	0.999	1.15	0.78
NCI-H1395	0.76	0.747	0.718	0.689	1.18	1.23	1	0.878	0.513	0.469	0.44	0.482	1.02	1.06	0.915	0.942	0.971
NCI-H1437	0.426	0.386	0.391	0.422	0.969	0.934	0.898	0.971	0.605	0.629	0.607	0.588	0.751	0.762	0.808	0.873	0.688
NCI-H1651	0.617	0.678	0.672	0.71	1.04	0.856	1.01	0.915	0.207	0.187	0.194	0.195	0.83	0.979	0.9	0.945	0.767
NCI-H1666	0.624	0.612	0.606	0.526	0.902	0.904	0.948	0.608	0.734	0.736	0.696	0.731	0.772	0.579	0.799	0.872	0.509
NCI-H1734	0.273	0.278	0.252	0.247	0.677	0.597	0.64	0.681	0.61	0.615	0.577	0.495	1	1.08	0.995	1.27	0.937
NCI-H1755	0.525	0.602	0.507	0.608	0.918	0.936	0.886	0.902	0.9	0.85	0.848	0.898	1.02	1.08	0.987	1.12	0.967
NCI-H1793	0.427	0.329	0.353	0.222	0.678	0.858	0.703	–	0.982	0.761	0.819	0.45	0.767	0.799	0.475	0.855	0.645
NCI-H1915	0.427	0.412	0.422	0.391	1.07	1.01	1.09	1.04	0.262	0.227	0.244	0.239	0.943	0.927	1.01	0.956	0.764
NCI-H1944	0.257	0.232	0.264	0.204	0.79	0.782	0.735	0.554	0.368	0.424	0.39	0.374	0.814	0.809	0.839	0.617	0.698

Reference: the supplement of paper PMC10307832
